Bridge positions count the residues as written; N and C are the ends. Square brackets hold non-standard residues; d marks the D form. Peptide text beside a SMILES is read from it. * marks the point of attachment. Bip = N[C@@H](Cc1ccc(-c2ccccc2)cc1)C(=O)O; Bta = N[C@@H](Cc1csc2ccccc12)C(=O)O; Ala(cPr) = N[C@@H](CC1CC1)C(=O)O; 3Pal = N[C@@H](Cc1cccnc1)C(=O)O; Cha = N[C@@H](CC1CCCCC1)C(=O)O; NMeL = CN[C@@H](CC(C)C)C(=O)O; hLeu = CC(C)CC[C@H](N)C(=O)O; Carboxymethyl = O=C(O)C*; NMeA = CN[C@@H](C)C(=O)O; Orn = NCCC[C@H](N)C(=O)O; Nva = CCC[C@H](N)C(=O)O; Abu = CC[C@H](N)C(=O)O
Target: T1, PE-labeled human PD-L1-Ig binding to Jurkat cell line over-expressing human PD-1 (Jurkat-PD-1) (Homo sapiens, UniProt Q15116)
T1 construct: expressed in transfected cells; host or cells: Jurkat
Experiment: Jurkat-PD-1 Cell Binding High-Content Screening Assay (CBA): Method 1
Conditions: Jurkat-hPD-1 cells, PE-labeled PD-L1-Ig 20 nM final; read-out: Jurkat HPDL1 PD1 IC50 (uM) (Method 1)

T1 sequence (Q15116 25-288): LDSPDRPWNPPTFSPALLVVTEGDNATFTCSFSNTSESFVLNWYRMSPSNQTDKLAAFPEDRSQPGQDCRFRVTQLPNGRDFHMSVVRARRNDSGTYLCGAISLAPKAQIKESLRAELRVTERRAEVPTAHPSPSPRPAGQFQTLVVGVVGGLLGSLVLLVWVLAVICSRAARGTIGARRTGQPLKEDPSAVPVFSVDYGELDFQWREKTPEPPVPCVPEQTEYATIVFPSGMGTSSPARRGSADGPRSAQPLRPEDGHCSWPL

Row | Structure (SMILES) | IC50 [µM]
1 | CC(C)C[C@@H]1NC(=O)[C@H](CCCNC(=N)N)NC(=O)[C@@H](CC(C)C)NC(=O)[C@H](C)N(C)C(=O)[C@H](CCCNC(=N)N)NC(=O)[C@H](Cc2ccc(-c3ccccc3)cc2)NC(=O)[C@H](C(C)C)NC(=O)[C@H](Cc2c[nH]c3ccccc23)NC(=O)[C@H](CC(=O)O)NC(=O)[C@H](Cc2ccc(OCC(=O)O)cc2)NC(=O)[C@H](Cc2cccnc2)NC(=O)CSC[C@@H](C(=O)N[C@@H](C)C(N)=O)NC(=O)[C@H]([C@@H](C)O)NC(=O)[C@H](C(C)C)NC1=O [Compound 1110] ({CH2CO}-[3Pal]Y(Carboxymethyl)DWV[Bip]R[NMeA][dL]RLVTCA-NH2; thioether N-14) | 0.04
2 | CC(C)C[C@H]1NC(=O)[C@H](C)N(C)C(=O)[C@H](CCCNC(=N)N)NC(=O)[C@H](Cc2ccc(-c3ccccc3)cc2)NC(=O)[C@H](C(C)C)NC(=O)[C@H](Cc2c[nH]c3ccccc23)NC(=O)[C@H](CC(=O)O)NC(=O)[C@H](Cc2ccc(O)cc2)NC(=O)[C@H](Cc2ccccc2)NC(=O)CSC[C@@H](C(=O)N[C@@H](C)C(N)=O)NC(=O)[C@H]([C@@H](C)O)NC(=O)[C@H](C(C)C)NC(=O)[C@H](CC2CC2)NC(=O)[C@H](CCCNC(=N)N)NC1=O [Compound 1111] ({CH2CO}-FYDWV[Bip]R[NMeA][dL]R[Ala(cPr)]VTCA-NH2; thioether N-14) | 0.07
3 | CCC[C@@H]1NC(=O)[C@H](CC(C)C)NC(=O)[C@H](CCCNC(=N)N)NC(=O)[C@@H](CC(C)C)NC(=O)[C@H](C)N(C)C(=O)[C@H](CCCNC(=N)N)NC(=O)[C@H](Cc2ccc(-c3ccccc3)cc2)NC(=O)[C@H](C(C)C)NC(=O)[C@H](Cc2c[nH]c3ccccc23)NC(=O)[C@H](CC(=O)O)NC(=O)[C@H](Cc2ccc(O)cc2)NC(=O)[C@H](Cc2ccccc2)NC(=O)CSC[C@@H](C(=O)N[C@@H](C)C(N)=O)NC(=O)[C@H]([C@@H](C)O)NC1=O [Compound 1112] ({CH2CO}-FYDWV[Bip]R[NMeA][dL]RL[Nva]TCA-NH2; thioether N-14) | 0.1
4 | CCC[C@@H]1NC(=O)[C@H](CCCNC(=N)N)NC(=O)[C@@H](CC(C)C)NC(=O)[C@H](C)N(C)C(=O)[C@H](CCCNC(=N)N)NC(=O)[C@H](Cc2ccc(-c3ccccc3)cc2)NC(=O)[C@H](C(C)C)NC(=O)[C@H](Cc2c[nH]c3ccccc23)NC(=O)[C@H](CC(=O)O)NC(=O)[C@H](Cc2ccc(O)cc2)NC(=O)[C@H](Cc2ccccc2)NC(=O)CSC[C@@H](C(=O)N[C@@H](C)C(N)=O)NC(=O)[C@H]([C@@H](C)O)NC(=O)[C@H](C(C)C)NC1=O [Compound 1113] ({CH2CO}-FYDWV[Bip]R[NMeA][dL]R[Nva]VTCA-NH2; thioether N-14) | 0.14
5 | CC[C@@H]1NC(=O)[C@H](CCCNC(=N)N)NC(=O)[C@@H](CC(C)C)NC(=O)[C@H](C)N(C)C(=O)[C@H](CCCNC(=N)N)NC(=O)[C@H](Cc2ccc(-c3ccccc3)cc2)NC(=O)[C@H](C(C)C)NC(=O)[C@H](Cc2c[nH]c3ccccc23)NC(=O)[C@H](CC(=O)O)NC(=O)[C@H](Cc2ccc(O)cc2)NC(=O)[C@H](Cc2ccccc2)NC(=O)CSC[C@@H](C(=O)N[C@@H](C)C(N)=O)NC(=O)[C@H]([C@@H](C)O)NC(=O)[C@H](C(C)C)NC1=O [Compound 1114] ({CH2CO}-FYDWV[Bip]R[NMeA][dL]R[Abu]VTCA-NH2; thioether N-14) | 0.93

Continued, values first:

Row | IC50 [µM] | Structure (SMILES)
6 | 0.05 | CC(C)C[C@H]1NC(=O)[C@H](C)N(C)C(=O)[C@H](CCCNC(=N)N)NC(=O)[C@H](Cc2ccc(-c3ccccc3)cc2)NC(=O)[C@H](C(C)C)NC(=O)[C@H](Cc2c[nH]c3ccccc23)NC(=O)[C@H](CC(=O)O)NC(=O)[C@H](Cc2ccc(O)cc2)NC(=O)[C@H](Cc2ccccc2)NC(=O)CSC[C@@H](C(=O)N[C@@H](C)C(N)=O)NC(=O)[C@H]([C@@H](C)O)NC(=O)[C@H](C(C)C)NC(=O)[C@H](CC2CCCCC2)NC(=O)[C@H](CCCNC(=N)N)NC1=O [Compound 1115] ({CH2CO}-FYDWV[Bip]R[NMeA][dL]R[Cha]VTCA-NH2; thioether N-14)
7 | 0.06 | CC(C)CC[C@@H]1NC(=O)[C@H](CCCNC(=N)N)NC(=O)[C@@H](CC(C)C)NC(=O)[C@H](C)N(C)C(=O)[C@H](CCCNC(=N)N)NC(=O)[C@H](Cc2ccc(-c3ccccc3)cc2)NC(=O)[C@H](C(C)C)NC(=O)[C@H](Cc2c[nH]c3ccccc23)NC(=O)[C@H](CC(=O)O)NC(=O)[C@H](Cc2ccc(O)cc2)NC(=O)[C@H](Cc2ccccc2)NC(=O)CSC[C@@H](C(=O)N[C@@H](C)C(N)=O)NC(=O)[C@H]([C@@H](C)O)NC(=O)[C@H](C(C)C)NC1=O [Compound 1116] ({CH2CO}-FYDWV[Bip]R[NMeA][dL]R[hLeu]VTCA-NH2; thioether N-14)
8 | 0.36 | CC(C)C[C@H]1NC(=O)[C@H](C)N(C)C(=O)[C@H](CCCNC(=N)N)NC(=O)[C@H](Cc2ccc(-c3ccccc3)cc2)NC(=O)[C@H](C(C)C)NC(=O)[C@H](Cc2c[nH]c3ccccc23)NC(=O)[C@H](CC(=O)O)NC(=O)[C@H](Cc2ccc(O)cc2)NC(=O)[C@H](Cc2ccccc2)NC(=O)CSC[C@@H](C(=O)N[C@@H](C)C(N)=O)NC(=O)[C@H]([C@@H](C)O)NC(=O)[C@H](C(C)C)NC(=O)[C@H](CC(C)C)N(C)C(=O)[C@H](CCCNC(=N)N)NC1=O [Compound 1117] ({CH2CO}-FYDWV[Bip]R[NMeA][dL]R[NMeL]VTCA-NH2; thioether N-14)
9 | 0.16 | CC[C@H](C)[C@@H]1NC(=O)[C@H](CC(C)C)NC(=O)[C@H](CCCNC(=N)N)NC(=O)[C@@H](CC(C)C)NC(=O)[C@H](C)N(C)C(=O)[C@H](CCCNC(=N)N)NC(=O)[C@H](Cc2ccc(-c3ccccc3)cc2)NC(=O)[C@H](C(C)C)NC(=O)[C@H](Cc2c[nH]c3ccccc23)NC(=O)[C@H](CC(=O)O)NC(=O)[C@H](Cc2ccc(O)cc2)NC(=O)[C@H](Cc2ccccc2)NC(=O)CSC[C@@H](C(=O)N[C@@H](C)C(N)=O)NC(=O)[C@H]([C@@H](C)O)NC1=O [Compound 1118] ({CH2CO}-FYDWV[Bip]R[NMeA][dL]RLITCA-NH2; thioether N-14)
10 | 0.03 | CC(C)C[C@@H]1NC(=O)[C@H](CCCN)NC(=O)[C@@H](CC(C)C)NC(=O)[C@H](C)N(C)C(=O)[C@H](CCCNC(=N)N)NC(=O)[C@H](Cc2ccc(-c3ccccc3)cc2)NC(=O)[C@H](C(C)C)NC(=O)[C@H](Cc2c[nH]c3ccccc23)NC(=O)[C@H](CC(=O)O)NC(=O)[C@H](Cc2ccc(O)cc2)NC(=O)[C@H](Cc2ccccc2)NC(=O)CSC[C@@H](C(=O)N[C@@H](C)C(N)=O)NC(=O)[C@H]([C@@H](C)O)NC(=O)[C@H](C(C)C)NC1=O [Compound 1119] ({CH2CO}-FYDWV[Bip]R[NMeA][dL][Orn]LVTCA-NH2; thioether N-14)
11 | 0.27 | CC(C)C[C@@H]1NC(=O)[C@H](CCCN)NC(=O)[C@H](Cc2csc3ccccc23)NC(=O)[C@H](C)N(C)C(=O)[C@H](CCCNC(=N)N)NC(=O)[C@H](Cc2ccc(-c3ccccc3)cc2)NC(=O)[C@H](C(C)C)NC(=O)[C@H](Cc2c[nH]c3ccccc23)NC(=O)[C@H](CC(=O)O)NC(=O)[C@H](Cc2ccc(O)cc2)NC(=O)[C@H](Cc2ccccc2)NC(=O)CSC[C@@H](C(=O)N[C@@H](C)C(N)=O)NC(=O)[C@H]([C@@H](C)O)NC(=O)[C@H](C(C)C)NC1=O [Compound 1120] ({CH2CO}-FYDWV[Bip]R[NMeA][Bta][Orn]LVTCA-NH2; thioether N-14)
